Measurements from US20240252673A1, “ANTI-TISSUE FACTOR ANTIBODY-DRUG CONJUGATES AND THEIR USE IN THE TREATMENT OF CANCER” (priority 2017, published 2024).

System: relapsed, recurrent and/or metastatic cervical cancer
Experiment: Phase IIa single arm trial: anti-tumor activity per RECIST v1.1
Format: in vivo, human
Settings: 2.0 mg/kg q3w
Description: A Phase IIa single arm, multicenter trial investigated the efficacy, safety and tolerability of 2.0 mg/kg tisotumab vedotin in patients with relapsed, recurrent and/or metastatic cervical cancer. A total of 34 patients (n=34) were enrolled and received at least 1 dose of tisotumab vedotin. Each eligible patient was assigned to receive an intravenous (IV) infusion dose of tisotumab vedotin at a concentration of 2.0 mg/kg on day 1 of a 21-day cycle (i.e., each treatment cycle was 3 weeks (q3w)).
A primary objective of the study was to assess safety and tolerability of tisotumab vedotin. Adverse event (AE) severity was graded according to CTCAE version 4.03. A secondary objective was preliminary evaluation of anti-tumor activity durability as assessed according to RECIST version 1.1. Tumor evaluations were performed by CT scans every six weeks.

## tisotumab vedotin
34 patients
  patients withdrew from treatment due to disease progression: 16 n
N = 34
  Median DoR for confirmed and unconfirmed responses: ^eMedian DoR of 5.4 months for confirmed and unconfirmed responses.
  Median PFS: 6.4 months
  confirmed PR: 8
N = 34, 1 of which is still ongoing
  unconfirmed PR: 3
N = 34, 95% Confidence interval 17%-50%
  Objective response rate (ORR): 32 % of total patients
N = 34, clinical benefit after 12 weeks, 95% Confidence interval 35%-65%
  DCR (CR + PR + SD): 50 % of total patients
Cervical cancer cohort
  efficacy, overall conclusion: robust efficacy
